Data taken from ChEMBL document CHEMBL1921687, “(2-Benzyl-2,3,4,5-tetrahydro-1H-pyrido[4,3-b]indol-8-yl)-acetic acid: an aldose reductase inhibitor and antioxidant of zwitterionic nature” (Bioorg Med Chem, 2011).
Active and inactive are the calls of the source. The rule behind the calls is not given here.

Columns and labels:
[1] = tested on: Erythrocyte; test: Antioxidant activity in Wistar rat erythrocytes assessed as prolongation of initial inhibition period-lag phase of t-BuOOH-induced hemolysis at 10 mM preincubated for 30 mins before induction measured up to 5 hrs by spectrophotometry; assay type: functional, cell-based
[2] = tested on: Erythrocyte; test: Antioxidant activity in Wistar rat erythrocytes assessed as prolongation of initial inhibition period-lag phase of t-BuOOH-induced hemolysis at 100 uM preincubated for 30 mins before induction measured up to 5 hrs by spectrophotometry; assay type: functional, cell-based
[3] = tested on: Erythrocyte; test: Antioxidant activity in Wistar rat erythrocytes assessed as prolongation of initial inhibition period-lag phase of AAPH-induced hemolysis at 100 uM preincubated for 30 mins before induction measured up to 5 hrs by spectrophotometry; assay type: functional, cell-based
[4] = tested on: Erythrocyte; test: Antioxidant activity in Wistar rat erythrocytes assessed as prolongation of initial inhibition period-lag phase of t-BuOOH-induced hemolysis at 2.5 uM preincubated for 30 mins before induction measured up to 5 hrs by spectrophotometry; assay type: functional, cell-based
[5] = tested on: Erythrocyte; test: Antioxidant activity in Wistar rat erythrocytes assessed as prolongation of initial inhibition period-lag phase of t-BuOOH-induced hemolysis at 100 uM treated 30 mins after induction measured up to 5 hrs by spectrophotometry; assay type: functional, cell-based
[6] = tested on: Rattus norvegicus; test: Inhibition of sorbitol accumulation in streptozotocin-induced diabetic rat erythrocytes at 25 mg/kg intra-gastrically bid for 4 days followed by single dose on 5th day measured after 3 hrs final dose by resazurin reduction assay; assay type: functional, organism-based; parameters: dose 25 mg/kg
[7] = tested on: Rattus norvegicus; test: Antidiabetic activity in streptozotocin-induced diabetic rat assessed as reduction in blood glucose level at 25 mg/kg intra-gastrically administered bid for 4 days followed by single dose on 5th day measured after 3 hrs final dose; assay type: functional, organism-based; parameters: dose 25 mg/kg
[8] = target: Aldo-keto reductase family 1 member B1 (Homo sapiens, UniProt P15121); test: Inhibition of aldose reductase

## NCCC(=O)N[C@@H](Cc1c[nH]cn1)C(=O)O
[1]
  Activity: Active

## COc1ccc2[nH]cc(CCNC(C)=O)c2c1
[2]
  Activity: inactive

## O=C(O)Cc1ccc2[nH]c3c(c2c1)CN(Cc1ccccc1)CC3
[3]
  Activity: Active
[4]
  Activity: Active
[5]
  Activity: inactive
[6]
  inhibition: Active
[7]
  Activity: inactive
[8]
  IC50: 18.2 µM

## Cc1c(C)c2c(c(C)c1O)CCC(C)(C(=O)O)O2 (centres undefined)
[3]
  Activity: Active
